In US20250064789A1, “KETOAMIDE DERIVATIVES AND PHARMACEUTICAL USES THEREOF” (priority 2022, published 2025):

These molecules were tested against recombinant SARS-CoV-2 M^pro (Severe acute respiratory syndrome coronavirus 2 (2019-nCoV) (SARS-CoV-2), UniProt P0DTD1) (assay: Inhibition of SARS-CoV-2 M^pro enzyme activity (fluorescent substrate assay)). Conditions: inhibition of SARS-CoV-2 M^pro enzyme activity; values given in μM; read-out: IC50.
Format: biochemical
`O=C(NCc1ccccn1)C(=O)[C@@H](Cc1ccccc1)NC(=O)[C@@H]1C[C@@H]2CCC[C@@H]2N1C(=O)C1CCC(F)(F)CC1` [Compound 263] was tested, and the IC50 was 1.56 ± 0.05 µM. In the case of `O=C(NCc1ccccn1)C(=O)[C@@H](Cc1ccccc1)NC(=O)[C@@H]1C[C@@H]2CCCC[C@@H]2N1C(=O)C1CCC(F)(F)CC1` [Compound 264], the IC50 is reported as greater than 2.5 µM. In the case of `O=C(NCc1ccccn1)C(=O)[C@@H](Cc1ccccc1)NC(=O)[C@@H]1[C@H]2CC[C@H](C2)N1C(=O)C1CCC(F)(F)CC1` [Compound 270], the IC50 is reported as greater than 2.5 µM. With `O=C(NCc1ccccn1)C(=O)[C@@H](Cc1ccccc1)NC(=O)[C@@H]1CC2(CC2)CN1C(=O)C1CCC(F)(F)CC1` [Compound 272] the IC50 was greater than 2.5 µM. For `O=C(NCc1ccccn1)C(=O)[C@@H](Cc1ccccc1)NC(=O)C1(NC(=O)N2CCC(F)(F)CC2)CC1` [Compound 300], the IC50 was 2.43 ± 0.04 µM.

Same assay, conditions: inhibition of SARS-CoV-2 M^pro enzyme activity; values in nM; read-out: IC50
`O=C(NCc1ccccn1)C(=O)[C@@H](Cc1ccccc1)NC(=O)[C@H]1C[C@@H]2CCCC[C@@H]2N1C(=O)C1CCC(F)(F)CC1` [Compound 265] gave an IC50 of 0.0156 ± 0.0001 µM. `O=C(NCc1ccccn1)C(=O)[C@@H](Cc1ccccc1)NC(=O)C1c2ccccc2CN1C(=O)C1CCC(F)(F)CC1` (some centres unmarked) [Compound 266] gave an IC50 of 0.0344 ± 0.0023 µM. `O=C(NCc1ccccn1)C(=O)[C@@H](Cc1ccccc1)NC(=O)[C@H]1Cc2ccccc2CN1C(=O)C1CCC(F)(F)CC1` [Compound 267] showed an IC50 of 0.0112 ± 0.0003 µM. For `O=C(NCc1ccccn1)C(=O)[C@@H](Cc1ccccc1)NC(=O)[C@@H]1C[C@H]2C[C@H]2N1C(=O)C1CCC(F)(F)CC1` [Compound 268], the IC50 was 0.296 ± 0.0038 µM. Molecule `O=C(NCc1ccccn1)C(=O)[C@@H](Cc1ccccc1)NC(=O)[C@H]1C[C@H]2C[C@H]2N1C(=O)C1CCC(F)(F)CC1` [Compound 269] has an IC50 of 0.0196 ± 0.0004 µM. `O=C(NCc1ccccn1)C(=O)[C@@H](Cc1ccccc1)NC(=O)[C@H]1Cc2ccccc2CN1C(=O)[C@@H](NC(=O)c1cnccn1)C1CCCCC1` [Compound 271] was tested, and the IC50 was 0.0115 ± 0.0001 µM. In the case of `O=C(NCc1ccccn1)C(=O)[C@@H](Cc1ccccc1)NC(=O)[C@H]1C[C@@H]2C[C@@H]2N1C(=O)CC1CCC(F)(F)CC1` [Compound 273], the IC50 is reported as 0.017 ± 0.0001 µM. In the case of `O=C(NCc1ccccn1)C(=O)[C@@H](Cc1ccccc1)NC(=O)C12CC(CN1C(=O)C1CCC(F)(F)CC1)C2` [Compound 274], the IC50 is reported as 0.9108 ± 0.0065 µM. Work on `O=C(NCc1ccccn1)C(=O)[C@@H](Cc1ccccc1)NC(=O)[C@H]1CC(F)(F)CN1C(=O)CC1CCC(F)(F)CC1` [Compound 276] yielded an IC50 of 0.013 ± 0.0008 µM. For `O=C(NCc1ccccn1)C(=O)[C@@H](Cc1ccccc1)NC(=O)[C@H]1CC(F)(F)CN1C(=O)C1(F)CCCCC1` [Compound 277], the IC50 was 0.0307 ± 0.0006 µM. `O=C(NCc1ccccn1)C(=O)[C@@H](Cc1ccccc1)NC(=O)[C@H]1CC(F)CN1C(=O)C1CCC(F)(F)CC1` (some centres unmarked) [Compound 278] showed an IC50 of 0.0337 ± 0.0005 µM. `O=C(NCc1ccccn1)C(=O)[C@@H](Cc1ccccc1)NC(=O)C1CCN(Cc2ccccc2)C1` (some centres unmarked) [Compound 279] showed an IC50 of 0.272 ± 0.0062 µM. With `O=C(NCc1ccccn1)C(=O)[C@@H](Cc1ccccc1)NC(=O)[C@@H]1CCCN1C(=O)[C@@H](NC(=O)c1cnccn1)C1CCCCC1` [Compound 280] the IC50 was 0.0132 ± 0.0012 µM. `O=C(NCc1ccccn1)C(=O)[C@@H](Cc1ccccc1)NC(=O)[C@H]1CCCCN1C(=O)[C@H]1CC[C@@H](C(F)(F)F)CC1` [Compound 281] gave an IC50 of 0.0148 ± 0.0001 µM. `O=C(NCc1ccccn1)C(=O)[C@@H](Cc1ccccc1)NC(=O)[C@H]1CCCCN1C(=O)C1CCC(F)(F)CC1` [Compound 282] gave an IC50 of 0.0134 ± 0.0004 µM. For `O=C(NCc1ccccn1)C(=O)[C@@H](Cc1ccccc1)NC(=O)[C@H]1CCCCN1C(=O)CC1CCC(F)(F)CC1` [Compound 283], the IC50 was 0.0146 µM. `O=C(NCc1ccccn1)C(=O)[C@@H](Cc1ccccc1)NC(=O)[C@H]1CCCCN1C(=O)[C@H](NC(=O)c1cnccn1)C1CCCCC1` [Compound 284] showed an IC50 of 0.0144 ± 0.0002 µM. In the case of `O=C(NCc1ccccn1)C(=O)[C@@H](Cc1ccccc1)NC(=O)[C@H]1CCCCN1C(=O)CCC1CCC(F)(F)CC1` [Compound 285], the IC50 is reported as 0.0171 ± 0.0002 µM. With `O=C(NCc1ccccn1)C(=O)[C@@H](Cc1ccccc1)NC(=O)[C@H]1CCCCN1C(=O)[C@@H]1C[C@@H]2[C@H](C1)C2(F)F` [Compound 286] the IC50 was 0.0163 ± 0.0015 µM. `O=C(NCc1ccccn1)C(=O)[C@@H](Cc1ccccc1)NC(=O)[C@H]1COCCN1C(=O)[C@H]1CC[C@@H](C(F)(F)F)CC1` [Compound 287] showed an IC50 of 0.0241 µM. In the case of `O=C(NCc1ccccn1)C(=O)[C@@H](Cc1ccccc1)NC(=O)[C@H]1COCCN1C(=O)CCC1CCC(F)(F)CC1` [Compound 291], the IC50 is reported as 0.0131 ± 0.0028 µM. In the case of `O=C(NCc1ccccn1)C(=O)[C@@H](Cc1ccccc1)NC(=O)[C@@H]1COCCN1C(=O)CC1CCC(F)(F)CC1` [Compound 292], the IC50 is reported as 0.0114 ± 0.0002 µM. In the case of `O=C(NCc1ccccn1)C(=O)[C@@H](Cc1ccccc1)NC(=O)[C@H]1COCCN1C(=O)[C@@H]1C[C@@H]2[C@H](C1)C2(F)F` [Compound 293], the IC50 is reported as 0.0164 ± 0.0011 µM. `O=C(NCc1ccccn1)C(=O)[C@@H](Cc1ccccc1)NC(=O)[C@H]1COCCN1C(=O)C1(F)CCCCC1` [Compound 294] showed an IC50 of 0.0145 ± 0.0002 µM. For `C[C@@H](NC(=O)NC1CCC(F)(F)CC1)C(=O)N[C@H](Cc1ccccc1)C(=O)C(=O)NCc1ccccn1` [Compound 295], the IC50 was 0.0122 µM. Molecule `C[C@@H](NC(=O)N1CCC(C(F)(F)F)CC1)C(=O)N[C@H](Cc1ccccc1)C(=O)C(=O)NCc1ccccn1` [Compound 297] has an IC50 of 0.0181 ± 0.0003 µM. Molecule `C[C@@H](NC(=O)N1CC2(C1)CC(F)(F)C2)C(=O)N[C@H](Cc1ccccc1)C(=O)C(=O)NCc1ccccn1` [Compound 298] has an IC50 of 0.0149 ± 0.0001 µM. `O=C(NC1CCC(F)(F)CC1)NC1(C(=O)N[C@H](Cc2ccccc2)C(=O)C(=O)NCc2ccccn2)CC1` [Compound 299] showed an IC50 of 0.0157 ± 0.0001 µM. `CC(C)(NC(=O)NC1CCC(F)(F)CC1)C(=O)N[C@H](Cc1ccccc1)C(=O)C(=O)NCc1ccccn1` [Compound 301] gave an IC50 of 0.0092 ± 0.0004 µM. `CC(C)(NC(=O)N1CCC(F)(F)CC1)C(=O)N[C@H](Cc1ccccc1)C(=O)C(=O)NCc1ccccn1` [Compound 302] gave an IC50 of 0.0415 ± 0.0009 µM. Molecule `CC(C)(NC(=O)NCC1CCC(F)(F)CC1)C(=O)N[C@H](Cc1ccccc1)C(=O)C(=O)NCc1ccccn1` [Compound 303] has an IC50 of 0.0107 ± 0.001 µM. In the case of `O=C(CNC(=O)N1CCC(F)(F)CC1)N[C@H](Cc1ccccc1)C(=O)C(=O)NCc1ccccn1` [Compound 304], the IC50 is reported as 0.0538 ± 0.0058 µM. For `O=C(CNC(=O)NC1CCC(F)(F)CC1)N[C@H](Cc1ccccc1)C(=O)C(=O)NCc1ccccn1` [Compound 305], the IC50 was 0.0243 ± 0.0004 µM. `O=C(N[C@@H](C1CC1)C(F)(F)F)NC1(C(=O)N[C@H](Cc2ccccc2)C(=O)C(=O)NCc2ccccn2)CCC1` [Compound 306] showed an IC50 of 0.0193 ± 0.001 µM. For `O=C(N[C@H](C1CC1)C(F)(F)F)NC1(C(=O)N[C@H](Cc2ccccc2)C(=O)C(=O)NCc2ccccn2)CCC1` [Compound 307], the IC50 was 0.026 ± 0.0021 µM. `O=C(NCc1ccccn1)C(=O)[C@@H](Cc1ccccc1)NC(=O)[C@H]1CC2CCCCC2N1C(=O)NCC1CC(F)(F)C1` (some centres unmarked) [Compound 308] was tested, and the IC50 was 0.0139 ± 0.0012 µM. With `O=C(NCc1ccccn1)C(=O)[C@@H](Cc1ccccc1)NC(=O)[C@H]1CC2CCCCC2N1C(=O)N1CCC(F)(F)CC1` (some centres unmarked) [Compound 309] the IC50 was 0.0194 µM. For `O=C(NCc1ccccn1)C(=O)[C@@H](Cc1ccccc1)NC(=O)[C@H]1Cc2ccccc2CN1C(=O)NCC1CC(F)(F)C1` [Compound 310], the IC50 was 0.0124 µM. `O=C(NCc1ccccn1)C(=O)[C@@H](Cc1ccccc1)NC(=O)[C@H]1Cc2ccccc2CN1C(=O)N1CCC(F)(F)CC1` [Compound 311] showed an IC50 of 0.0167 ± 0.0006 µM. Molecule `O=C(NCc1ccccn1)C(=O)[C@@H](Cc1ccccc1)NC(=O)[C@H]1Cc2ccccc2CN1C(=O)OC1CCC(F)(F)CC1` [Compound 312] has an IC50 of 0.0145 ± 0.0001 µM. For `O=C(NC1(C(=O)N[C@H](Cc2ccccc2)C(=O)C(=O)NCc2ccccn2)CCC1)OCC1CCC(F)(F)CC1` [Compound 313, (4,4-difluorocyclohexyl)methyl(R)-(1-((3,4-dioxo-1-phenyl-4-((pyridin-2-ylmethyl)amino)butan-2-yl)carbamoyl)cyclobutyl) carbamate], the IC50 was 0.016 ± 0.002 µM. `O=C(NC1(C(=O)N[C@H](Cc2ccccc2)C(=O)C(=O)NCc2ccccn2)CCC1)OC1CCC(F)(F)CC1` [Compound 314] was tested, and the IC50 was 0.0124 ± 0.0003 µM. `O=C(NC1(C(=O)N[C@H](Cc2ccccc2)C(=O)C(=O)NCc2ccccn2)CCC1)O[C@H]1CO[C@H]2OCC[C@H]21` [Compound 315] was tested, and the IC50 was 0.0202 ± 0.0033 µM. Work on `C[C@@H](NC(=O)OCc1ccccc1)C(=O)N[C@H](Cc1ccccc1)C(=O)C(=O)NCc1ccccn1` [Compound 316] yielded an IC50 of 0.0159 ± 0.0004 µM. `O=C(NCc1ccccn1)C(=O)[C@@H](Cc1ccccc1)NC(=O)C1(C(=O)NC2CCC(F)(F)CC2)CC1` [Compound 319] was tested, and the IC50 was 0.0371 ± 0.0029 µM. `O=C(NCc1ccccn1)C(=O)[C@@H](Cc1ccccc1)NC(=O)C1(C(=O)NCC2CCC(F)(F)CC2)CC1` [Compound 320] showed an IC50 of 0.0167 ± 0.0003 µM. `O=C(NCc1ccccn1)C(=O)[C@@H](Cc1ccccc1)NC(=O)C1(C(=O)NCc2cnccn2)CC1` [Compound 321] was tested, and the IC50 was 0.166 ± 0.0026 µM. Molecule `O=C(NCc1ccccn1)C(=O)[C@@H](Cc1ccccc1)NC(=O)C1(C(=O)Nc2ccc(F)cc2)CC1` [Compound 322] has an IC50 of 0.125 ± 0.006 µM. In the case of `CC(C)(C(=O)NC1CCC(F)(F)CC1)C(=O)N[C@H](Cc1ccccc1)C(=O)C(=O)NCc1ccccn1` [Compound 323], the IC50 is reported as 0.0307 ± 0.0019 µM. Molecule `CC(C)(C(=O)N[C@H](Cc1ccccc1)C(=O)C(=O)NCc1ccccn1)C(=O)N1CCC(C(F)(F)F)CC1` [Compound 325] has an IC50 of 0.177 ± 0.0025 µM. `CC(C)(C(=O)N[C@H](Cc1ccccc1)C(=O)C(=O)NCc1ccccn1)n1cc(-c2ccccc2)cn1` [Compound 326, (R)-3-(2-methyl-2-(4-phenyl-1H-pyrazol-1-yl)propionamido)-2-oxo-4-phenyl-N-(pyridin-2-ylmethyl)butyramide] was tested, and the IC50 was 0.0207 ± 0.0005 µM. With `CC(C)(C(=O)N[C@H](Cc1ccccc1)C(=O)C(=O)NCc1ccccn1)n1cc(Br)cn1` [Compound 327] the IC50 was 0.245 ± 0.0027 µM. Molecule `CC(C)(C(=O)N[C@H](Cc1ccccc1)C(=O)C(=O)NCc1ccccn1)n1cc(-c2ccccc2F)cn1` [Compound 328] has an IC50 of 0.0317 ± 0.0001 µM. Molecule `CC(C)(C(=O)N[C@H](Cc1ccccc1)C(=O)C(=O)NCc1ccccn1)n1cc(-c2cccc(F)c2)cn1` [Compound 329] has an IC50 of 0.0194 ± 0.0018 µM.
